Experimental data from the OligoGym collection.
After the bases stand the sugars from the 5' end (letter, count) and the backbone: PS all phosphorothioate, else s phosphorothioate and o phosphodiester by linkage. Methylation of C is not given here. l = locked nucleic acid (LNA); d = 2'-deoxy (DNA)

Molecular target: SNHG14
Conditions: ASO
[1] = Mouse Primary Neuronal Cell, 0.005 µM

| Sequence | target mRNA inhibition (Human Neuronal Cell, 7.5 µM) [%] | target mRNA inhibition (Human Neuronal Cell, 0.2 µM) [%] | target mRNA inhibition (Human Neuronal Cell, 1 µM) [%] | further results |
| --- | --- | --- | --- | --- |
| AGTTCTACTATACTTTC (sugars l3 d10 l1 d1 l2, PS) | 59 |  |  |  |
| AGTTCTACTATACTTTC (sugars l4 d11 l2, PS) |  | 50 | 57 |  |
| AGTTCTACTATACTTTC (sugars ldlldddddddldllll, PS) | 30 |  |  |  |
| AGTTCTACTATACTTTCC (sugars l1 d1 l1 d13 l2, PS) | 40 |  |  |  |
| AGTTCTACTATACTTTCC (sugars l1 d12 l1 d2 l2, PS) | 52 |  |  |  |
| AGTTCTACTATACTTTCC (sugars l2 d14 l2, PS) | 14 |  |  |  |
| AGTTCTACTATACTTTCC (sugars lddddldddddddlddll, PS) | 60 |  |  |  |
| ATATTGATTCAATTCCC (sugars l2 d1 l1 d10 l3, PS) | 65 |  |  |  |
| ATATTGATTCAATTCCC (sugars l2 d2 l1 d9 l3, PS) | 75 |  |  |  |
| ATATTGATTCAATTCCC (sugars ldddlddddddllddll, PS) | 62 |  |  |  |
| ATATTGATTCAATTCCC (sugars lddllddddddlddlll, PS) | 62 |  |  |  |
| ATATTGATTCAATTCCC (sugars lldddddddddldldll, PS) | 60 |  |  |  |
| ATATTTGTCACCTAAC (sugars l4 d10 l2, PS) |  | 33 | 32 |  |
| ATCATTCTCAACAATTA (sugars l1 d1 l3 d6 l6, PS) | -24 |  |  |  |
| ATCATTCTCAACAATTA (sugars l4 d7 l6, PS) | 17 |  |  |  |
| ATCATTCTCAACAATTA (sugars l5 d6 l2 d2 l2, PS) | 31 |  |  |  |
| ATCATTCTCAACAATTA (sugars l5 d7 l1 d1 l3, PS) | 54 |  |  |  |
| ATCATTCTCAACAATTAA (sugars l5 d8 l5, PS) | 48 |  |  |  |
| ATCCCTTTGTAATCAT (sugars l4 d10 l2, PS) |  | 33 | 28 |  |
| ATCTCATGACCACCTAA (sugars ldldddddddddlldll, PS) | 51 |  |  |  |
| ATCTGCTACATATTCT (sugars l4 d10 l2, PS) |  | 41 | 61 |  |
| ATCTGCTACATATTCTT (sugars l4 d11 l2, PS) |  | 50 | 59 |  |

| Sequence | target mRNA inhibition (Human Neuronal Cell, 7.5 µM) [%] | target mRNA inhibition (Human Neuronal Cell, 0.2 µM) [%] | target mRNA inhibition (Human Neuronal Cell, 1 µM) [%] | further results |
| --- | --- | --- | --- | --- |
| ATCTTTCCATTTATTTCCAT (sugars ldddddlddddddlddddll, PS) | 41 |  |  |  |
| ATCTTTCCATTTATTTCCAT (sugars ldddldldddddddldddll, PS) | 30 |  |  |  |
| ATTCTTACCGTCTTTA (sugars l4 d10 l2, PS) |  | 49 | 60 |  |
| ATTGATTCAATTCCCTT (sugars l3 d8 l3 d1 l2, PS) | 51 |  |  |  |
| ATTGATTCAATTCCCTT (sugars lddlddddddddldlll, PS) | 67 |  |  |  |
| ATTGATTCAATTCCCTT (sugars lddlddddddddlldll, PS) | 61 |  |  |  |
| ATTGATTCAATTCCCTT (sugars ldldddddddddldlll, PS) | 54 |  |  |  |
| ATTTACACTTAATTATACTT (sugars lllldllddddddlldddll, PS) | 38 |  |  |  |
| ATTTCATATTACTAACTA (sugars l2 d12 l4, PS) |  | 3 | 20 |  |
| ATTTTTTTCTTACTATCTTC (sugars ldddllddddddddlddlll, PS) | 58 |  |  |  |
| ATTTTTTTCTTACTATCTTC (sugars ldlldlldddddddddddll, PS) | 69 |  |  |  |
| ATTTTTTTCTTACTATCTTC (sugars lldlddddddddddddldll, PS) | 50 |  |  |  |
| CAAACCTACGTCTCTC (sugars l2 d10 l4, PS) |  | 31 | 26 |  |
| CAAAGATCATTCTCAAC (sugars l1 d2 l2 d6 l6, PS) | 34 |  |  |  |
| CAACATTATTAACCACCTT (sugars l1 d14 l4, PS) | 47 |  |  |  |
| CAACATTATTAACCACCTTA (sugars l1 d13 l3 d1 l2, PS) | 47 |  |  |  |
| CAACATTATTAACCACCTTA (sugars ldldldddddddddddldll, PS) | 51 |  |  |  |
| CAACATTATTAACCACCTTA (sugars ldlldddddddddddlddll, PS) | 57 |  |  |  |
| CAACTATTATCTTCTT (sugars l2 d10 l4, PS) |  | 42 | 61 |  |
| CAACTCTATGACTACC (sugars l2 d10 l4, PS) |  | 46 | 36 |  |
| CAAGTTTCCTATATTCT (sugars l4 d11 l2, PS) |  | 66 | 70 |  |
| CACCTTAAGTAACATT (sugars l4 d10 l2, PS) |  | 19 | 21 |  |

| Sequence | target mRNA inhibition (Human Neuronal Cell, 7.5 µM) [%] | target mRNA inhibition (Human Neuronal Cell, 0.2 µM) [%] | target mRNA inhibition (Human Neuronal Cell, 1 µM) [%] | further results |
| --- | --- | --- | --- | --- |
| CACTAATAATTCACTTT (sugars l4 d11 l2, PS) |  | 31 | 49 |  |
| CAGCTTTTAACCAGAGT (sugars l2 d12 l3, PS) | 79 |  |  |  |
| CAGTTTAAATTCACAC (sugars l3 d10 l3, PS) |  | 34 | 46 |  |
| CATTATTATTTAACCTT (sugars l2 d11 l4, PS) |  | -2 | 14 |  |
| CATTTACAAGCACATA (sugars l2 d10 l4, PS) |  | 43 | 37 |  |
| CCAAATAAGCAAACTC (sugars l3 d10 l3, PS) |  | 60 | 39 |  |
| CCACCTAAGACCTCAA (sugars l2 d10 l4, PS) |  | 53 | 60 |  |
| CCACTGATTTCCTTAAA (sugars l4 d11 l2, PS) |  | 40 | 57 |  |
| CCATACAGTATATACA (sugars l4 d10 l2, PS) |  | 31 | 56 |  |
| CCATTTATTTCCATTTAT (sugars l3 d12 l3, PS) |  | 38 | 59 |  |
| CCATTTATTTCCATTTATT (sugars lddldddddddddlldlll, PS) | 59 |  |  |  |
| CCATTTATTTCCATTTATTT (sugars ldldddddddddddllddll, PS) | 52 |  |  |  |
| CCCAAATAAGCAAACT (sugars l4 d10 l2, PS) |  | 35 | 43 |  |
| CCCATTTCTAACATTTAC (sugars l3 d12 l3, PS) |  | 50 | 64 |  |
| CCCTTATAGTTATTAA (sugars l3 d10 l3, PS) |  | 26 | 13 |  |
| CCTAAGCTCCATATTTA (sugars l3 d11 l3, PS) |  | 30 | 47 |  |
| CCTACATCTCATACTTG (sugars l3 d12 l2, PS) |  |  |  | target mRNA inhibition [1]: 96.1% |
| CCTACATCTCATACTTG (sugars l4 d11 l2, PS) |  | -13 | 17 | target mRNA inhibition (Human Neuronal Cell, 5 µM): 12%; target mRNA inhibition [1]: 94.2% |
| CCTATGTTAATACTTT (sugars l4 d10 l2, PS) |  | 25 | 29 |  |
| CCTCAATACTCTACTT (sugars l4 d10 l2, PS) |  | 43 | 54 |  |
| CCTCTGCTTATAACTT (sugars l3 d10 l3, PS) |  | 47 | 68 |  |
